Reference: patent US20240327339A1, “COMPOSITIONS AND METHODS FOR TREATING AND PREVENTING VIRAL INFECTIONS” (priority 2021, published 2024)
Values after ≈ are worked out from the molar mass of the structure shown. “Also recorded” adds a separate entry of the source. Read-outs that look alike come from different tables or passages of the source.

What was measured:
A/WSN/33 (H1N1) [1] = experiment: A/WSN/33 (H1N1) IC50 (Perwitasari et al.); assay type: cell-based; conditions: Influenza A virus; converted from 0.5 nM
RSV B1 = experiment: In vitro probenecid inhibition assay, RSV B1 (plaque assay); assay type: cell-based, respiratory syncytial virus (RSV); conditions: for IC50 / IC90: human respiratory syncytial virus; for IC90: up to 100 μM; for virus replication compared to control (DMSO only): Vero E6, HEp-2 and NHBE cells
influenza virus = experiment: Influenza assays in A549 cells; assay type: cell-based
Method: Experiment Conducted in A549 Cells.
[…] with influenza virus (MOI=0.1) for 1 hour
The virus is plaqued in MDCK cells while studies are carried out in human respiratory epithelial cells.

Zika (MR766) virus = experiment: Zika assay in Vero-P cells; assay type: cell-based; conditions: MOI=0.1, FIG. 11
Text: (§1) Experiments Conducted in Vero-P Cells.

Memphis-37 = experiment: In vitro probenecid inhibition assay, Memphis-37 (plaque assay); assay type: cell-based, human RSV strain A; conditions: for IC50 / IC90: human respiratory syncytial virus; for virus replication compared to control (DMSO only): Vero E6, HEp-2 and NHBE cells
hMPV CAN83 (A2 strain) = experiment: hMPV challenge of BALB/c mice; assay type: in vivo; conditions: 24 h prior to or 24 h post infection; lungs 5 dpi; FIGS. 26A-26B
Method: BALB/c mice were prophylactically (24 h prior to) or post-infection (24 h post) (“treatment”) treated with probenecid at the indicated concentrations. Mice (n=5/sex/group) were challenged i.n. with 1e6 PFU hMPV CAN83 (A2 strain). Lungs were collected 5 dpi and a plaque assay performed. The results are illustrated in FIGS. 26A-26B.

SARS-CoV-2 [2] = conditions: 90% inhibition of COVID-19 viral replication; Investigator Brochure; read-out: IC90 level; cited from earlier work
SARS-CoV-2 [3] = conditions: ten non-hospitalized patients, mild to moderate infection; 28 day; cited from earlier work
[4] = in vivo, cited from earlier work
RSV A2 [5] = experiment: In vitro probenecid inhibition assay, RSV A2 (plaque assay); assay type: cell-based, respiratory syncytial virus (RSV); conditions: for IC50 / IC90: human respiratory syncytial virus; for virus replication compared to control (DMSO only): Vero E6, HEp-2 and NHBE cells
Dengue Type 1 virus = experiment: Dengue assay in Vero-P cells; conditions: MOI=0.1, FIG. 12
Measles virus [6] = experiment: Measles virus syncytia immunostaining; assay type: cell-based
Method: (§2) Plate 4×10^4/well of Vero-E6 or Hep-2 cells to be 95-100% confluent the next day. The next day make fresh dilutions of Probenecid were made. From a stock concentration of 10 mM in 100% DMSO, dilutions were made with half DMSO and half DMEM with 4% BSA fraction. FBS inhibits some viruses. Media was decanted and dilutions of probenecid were added to cells. Controls: DMSO/Media mixture, Media with no Probenecid, Media with no virus. Probenecid dilutions were left on cells for 24 hrs. After 24 hrs, media was decanted and virus was added (MOI=0.01/well). Virus was diluted to MOI=0.01 per 100 uL with DMEM. Left virus inoculum on cells for 1 hr. After 1 hr, infection media was decanted and replaced with dilutions of Probenecid. For Immunostaining, plates were left for 24 hrs before fixing cells. For Plaque Assays, plates were left for 72 hrs before freezing at −80 C.
The immunostaining protocol generally included fixing cells with 4% formaldehyde in PBS (50 uL) for 15-20 min at room temp, rinsing cells 3× with PBS (100 uL), and optionally storing cells at 4° C. in PBS until ready to stain. Permeabilizing cells with 0.05% TritonX-100 in PBS (100 uL) for 10 min at room temp, rinsing cells 3× with PBS (100 uL), blocking with 3% BSA-PBS (100 uL) for 1 hr at 37° C. or overnight at 4° C. Blocking solution was removed and cells were incubated with primary antibody (mouse mAb uNP, Millipore MAB8906) at 1:10,000 dilution (100 uL) for 1 hour (antibody diluted in 3% BSA-PBS). Cells were washed 3× with KPL Buffer (100 uL), incubated for 45 min with secondary antibody (Goat uMouse conjugated with Alex flour 488) in the dark at 37° C. (antibody diluted in 3% BSA-PBS). Cells were washed 3× with KPL Buffer in the dark (100 uL), rapidly stained with DAPI (1 ug/mL) for 10 min in the dark, washed 3× with PBS in the dark and stored in 200 ul of PBS until visualization.
Experiments were designed to test the prophylactic effect of probenecid on measles virus infection. Cells were infected with measle virus with, or without, probenecid treatment and immunostained for syncytia. […]

[7] = Preliminary virology data used for pediatric simulations; conditions: virus not stated
Method: Simulations were also conducted in pediatric subjects. Allometric scaling based on body weights used as an empirical approach to predict concentrations in pediatric subjects. 10 mg/kg qd, 10 mg/kg bid, 20 mg/kg qd, 20 mg/kg bid dose was simulated. IC50 from preliminary virology data is 1 nM.

[8] = tested on: adenovirus serotype 5 (Ad5); experiment: Ad5 infection of A549 cells; assay type: cell-based; conditions: only limited conditions tested
A/WSN/33 (H1N1) [9] = conditions: Perwitasari et al. 2013; cited from earlier work
SARS-CoV-2 [10] = experiment: SARS-CoV-2 IC90 (Investigator Brochure); conditions: Severe acute respiratory syndrome coronavirus 2, read-out: IC90 level corrected for 95% protein binding
Measles virus [11] = experiment: Measles virus plaque assay; assay type: cell-based; conditions: HEp2 and Vero cells treated before infection; MOI=0.01; 72 hours
Method: as §2
For plaque assays of probenecid treated cells, cells were treated with various concentrations of Probenecid before being infected with Measles virus (MOI=0.01). After 72 hours, cells were frozen until plaque assay. Plaque concentrations are recorded as log 10 PFU/mL.

[12] = tested on: SLC22A8 (OAT3) transcripts; experiment: OAT3 expression in HEp-2 cells (qPCR); conditions: HEp-2 cells treated with IC90 of probenecid [7.2 uM] for 24 h
Mumps (Jones) virus = experiment: Mumps assay in Vero-P cells; assay type: cell-based; conditions: MOI=0.1, FIG. 10
Text: as §1

E. coli = experiment: Killing of free bacteria
RSV A2 [13] = experiment: In vivo inhibition study, BALB/c mouse model of RSV infection; design: species or system BALB/c mice; conditions: 2 or 200 mg/kg i.p., 24 h before or 24 h after infection, days 3, 5, 7 pi
SARS-CoV-2 [14] = conditions: cited from earlier work
Burkholderia = experiment: Bacterial replication in macrophage; conditions: macrophage-associated bacteria
RSV = conditions: cited from earlier work
[15] = Vero C1008, Prophylaxis (24 h before infection), Vero E6 cells
[16] = Vero C1008, Treatment (24 h after infection), Vero E6 cells
[17] = Prophylaxis (24 h before infection), HEp-2 cells
[18] = Prophylaxis (24 h before infection), NHBE cells
[19] = Treatment (24 h after infection), HEp-2 cells
[20] = Treatment (24 h after infection), NHBE cells

## CCCN(CCC)S(=O)(=O)c1ccc(C(=O)O)cc1 [Probenecid, 4-[(dipropylamino)sulfonyl] benzoic acid]
A/WSN/33 (H1N1) [1]
  IC50: 0.000143 µg/mL (≈ 0.000501 µM)
RSV B1; [15]
  IC50: 850 nM
  IC90: > 100000 nM
RSV B1; [16]
  IC50: 2000 nM
  IC90: > 100000 nM
RSV B1; [17]
  IC50: 800 nM
  IC90: > 100000 nM
RSV B1; [18]
  IC50: 800 nM
  IC90: > 100000 nM
RSV B1; [19]
  IC50: 900 nM
  IC90: > 100000 nM
RSV B1; [20]
  IC50: 1200 nM
  IC90: > 100000 nM
RSV B1; prophylaxis 24 h before RSV B1 infection, FIG. 3
  virus replication compared to control (DMSO only): significantly (**** p<0.0001) inhibited the virus replication
RSV B1; treated 24 h after RSV B1 infection, FIG. 4
  virus replication compared to control (DMSO only): significantly (**** p<0.0001) inhibited the virus replication
Influenza virus
  IC50 for flu: in the picomolar range
Zika (MR766) virus
  inhibition of virus replication: picomolar levels of probenecid were effective at inhibiting virus replication
Memphis-37; [15]
  IC50: 30 nM
  IC90: 270 nM
Memphis-37; [16]
  IC50: 400 nM
  IC90: 3600 nM
Memphis-37; [17]
  IC50: 40 nM
  IC90: 360 nM
Memphis-37; [18]
  IC50: 160 nM
  IC90: 1440 nM
Memphis-37; [19]
  IC50: 500 nM
  IC90: 4500 nM
Memphis-37; [20]
  IC50: 200 nM
  IC90: 1800 nM
Memphis-37; prophylaxis 24 h before Memphis-37 infection, FIG. 5
  virus replication compared to control (DMSO only): significantly (**** p<0.0001) inhibited the virus replication
Memphis-37; treated 24 h after Memphis-37 infection, FIG. 6
  virus replication compared to control (DMSO only): significantly (**** p<0.0001) inhibited the virus replication
hMPV CAN83 (A2 strain)
  effect on hMPV infection (lung plaque assay): Prophylactically and Therapeutically Reduces Human Metapneumovirus (HMPV) Infection
SARS-CoV-2 [2]
  IC90: 364 nM
SARS-CoV-2 [3]
  patient symptoms: patient symptoms showed improvement
[4]; po
  absorption: completely absorbed after oral administration
  time to peak plasma concentration: 2 to 4 h
[4]
  half life: 6 to 12 h
  half-life in plasma: less than 5 hr to more than 8 hr
RSV A2 [5]; [15]
  IC50: 70 nM
  IC90: 630 nM
RSV A2 [5]; [16]
  IC50: 100 nM
  IC90: 2700 nM
RSV A2 [5]; [17]
  IC50: 800 nM
  IC90: 7200 nM
RSV A2 [5]; [18]
  IC50: 400 nM
  IC90: 3600 nM
RSV A2 [5]; [19]
  IC50: 1200 nM
  IC90: 10800 nM
RSV A2 [5]; [20]
  IC50: 300 nM
  IC90: 2700 nM
RSV A2 [5]; prophylaxis 24 h before RSV A2 infection, FIG. 1
  virus replication compared to control (DMSO only): significantly (**** p<0.0001) inhibited the virus replication
RSV A2 [5]; treated 24 h after RSV A2 infection, FIG. 2
  virus replication compared to control (DMSO only): significantly (**** p<0.0001) inhibited the virus replication
Dengue Type 1 virus
  inhibition of virus replication: picomolar levels of probenecid were effective at inhibiting virus replication
Measles virus [6]; 1 uM Probenecid, 24 hrs, NP fluorescence stain
  syncytia per well: no syncytia were detected
Measles virus [6]; Hep-2 cells, other assays
  concentration also effective on MeV: 0.03 UM
Measles virus [6]; Measles morbillivirus, probenecid dilution assay, FIG. 14A, read-out: IC50 (average syncytia per well)
  IC50: 0.8 nM
[7]
  IC50: 1 nM
[8]
  effect on infection: did not statistically significantly reduce infection
A/WSN/33 (H1N1) [9]
  IC50: 0.5 nM
SARS-CoV-2 [10]
  IC90: 2.08 µg/mL (≈ 7.29 µM)
Measles virus [11]
  plaque titers: below the limit of detection
[12]
  OAT3 Raw Ct Value: undetectable levels of OAT3 transcripts; also recorded: No Ct
Mumps (Jones) virus
  inhibition of virus replication: picomolar levels of probenecid were effective at inhibiting virus replication
E. coli
  killing of bacteria: did not kill bacteria
RSV A2 [13]; female BALB/c mice
  lung virus titers compared to control (PBS): significantly (p<0.0001) reduced lung virus titer; also recorded: significant (**** p<0.0001) reduction in lung viral titers
RSV A2 [13]; male BALB/c mice
  lung virus titers compared to control (PBS): significantly (p<0.0001) reduced lung virus titer; also recorded: significant (**** p<0.0001) reduction in lung viral titers
SARS-CoV-2 [14]; hamsters, 2 mg/kg and 200 mg/kg
  efficacy at treating SARS-CoV-2: both effective at treating SARS-CoV-2 in hamsters in vivo
SARS-CoV-2 [14]; in vitro and pre-clinical hamster studies (WO 2021/207606)
  effect on virus replication and inflammatory response: block replication of the SARS-CoV-2 virus and the associated acute inflammatory response to the infection
Burkholderia
  killing of bacteria: did not kill bacteria

## NC(=O)c1ncn([C@@H]2O[C@H](CO)[C@@H](O)[C@H]2O)n1 [Ribavirin]
RSV; inhaled
  therapeutic results: mixed-to-poor results

## palivizumab: a humanized monoclonal antibody targeting the F protein
RSV; treated high-risk infants, monthly administration
  reduction of hospitalizations: approximately 50%
